According to patent US12493040B2, “Cancer detection method using sense of smell of nematode” (HIROTSU BIO SCIENCE INC., priority 2013, dated 2025):

Test system: RNAi-treated eri-1 (mg366) nematodes
Assay: RNAi screening of olfactory receptor genes: chemotaxis assay of RNAi-treated nematodes to odorants
Assay type: in vivo, Caenorhabditis elegans
Conditions: low concentration of attractant
In short: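 Chemotaxis of adult RNAi-fed eri-1 (mg366) nematodes (30–50 per test) was measured toward low (1 μl, 10^−3 or 10^−4 dilution) or high (1 and 5 μl neat) odorant doses. Knockdown: 4 days feeding on E. coli from Ahringer library with IPTG and ampicillin. Differences called by z score at ±1.96, weaker cutoff ±0.96.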

Cc1nc(C)c(C)s1 [trimethylthiazole]
chemotaxis index (Control nematodes): 0.64 ± 0.015
chemotaxis index (srh-10 RNAi-treated nematodes): 0.88
chemotaxis index (srh-11 RNAi-treated nematodes): 0.85
chemotaxis index (srh-15 RNAi-treated nematodes): 0.91
chemotaxis index (srh-16 RNAi-treated nematodes): 0.49
chemotaxis index (srh-18 RNAi-treated nematodes): 0.91
chemotaxis index (srh-19 RNAi-treated nematodes): 0.88
chemotaxis index (srh-22 RNAi-treated nematodes): 0.75
chemotaxis index (srh-23 RNAi-treated nematodes): 0.78
chemotaxis index (srh-24 RNAi-treated nematodes): 0.92
chemotaxis index (srh-25 RNAi-treated nematodes): 0.95
chemotaxis index (srh-27 RNAi-treated nematodes): 0.71
chemotaxis index (srh-28 RNAi-treated nematodes): 0.92
chemotaxis index (srh-36 RNAi-treated nematodes): 0.51
chemotaxis index (srh-37 RNAi-treated nematodes): 0.87
chemotaxis index (srh-39 RNAi-treated nematodes): 0.45
chemotaxis index (srh-40 RNAi-treated nematodes): 0.73
chemotaxis index (srh-41 RNAi-treated nematodes): 0.85
chemotaxis index (srh-44 RNAi-treated nematodes): 0.90
chemotaxis index (srh-45 RNAi-treated nematodes): 0.73
chemotaxis index (srh-46 RNAi-treated nematodes): 0.83
chemotaxis index (srh-48 RNAi-treated nematodes): 0.65
chemotaxis index (srh-49 RNAi-treated nematodes): 0.59
chemotaxis index (srh-50 RNAi-treated nematodes): 0.84
chemotaxis index (srh-51 RNAi-treated nematodes): 0.64
chemotaxis index (srh-52 RNAi-treated nematodes): 0.55
chemotaxis index (srh-55 RNAi-treated nematodes): 0.56
chemotaxis index (srh-59 RNAi-treated nematodes): 0.37
chemotaxis index (srh-60 RNAi-treated nematodes): 0.79
chemotaxis index (srh-61 RNAi-treated nematodes): 0.70
chemotaxis index (srh-67 RNAi-treated nematodes): 0.63
chemotaxis index (srh-68 RNAi-treated nematodes): 0.57
chemotaxis index (srh-69 RNAi-treated nematodes): 0.75
chemotaxis index (srh-70 RNAi-treated nematodes): 0.78
chemotaxis index (srh-71 RNAi-treated nematodes): 0.85
chemotaxis index (srh-72 RNAi-treated nematodes): 0.58
chemotaxis index (srh-74 RNAi-treated nematodes): 0.44
chemotaxis index (srh-75 RNAi-treated nematodes): 0.54
chemotaxis index (srh-77 RNAi-treated nematodes): 0.52
chemotaxis index (srh-79 RNAi-treated nematodes): 0.42
chemotaxis index (srh-80 RNAi-treated nematodes): 0.39
chemotaxis index (srh-82 RNAi-treated nematodes): 0.71
chemotaxis index (srh-83 RNAi-treated nematodes): 0.86
chemotaxis index (srh-97 RNAi-treated nematodes): 0.77
chemotaxis index (srh-99 RNAi-treated nematodes): 0.65
chemotaxis index (srh-100 RNAi-treated nematodes): 0.62
chemotaxis index (srh-104 RNAi-treated nematodes): 0.65
chemotaxis index (srh-105 RNAi-treated nematodes): 0.66
chemotaxis index (srh-109 RNAi-treated nematodes): 0.76
chemotaxis index (srh-111 RNAi-treated nematodes): 0.37
chemotaxis index (srh-113 RNAi-treated nematodes): 0.83
chemotaxis index (srh-115 RNAi-treated nematodes): 0.47
chemotaxis index (srh-116 RNAi-treated nematodes): 0.56
chemotaxis index (srh-118 RNAi-treated nematodes): 0.73
chemotaxis index (srh-119 RNAi-treated nematodes): 0.71
chemotaxis index (srh-120 RNAi-treated nematodes): 0.72
chemotaxis index (srh-122 RNAi-treated nematodes): 0.44
chemotaxis index (srh-123 RNAi-treated nematodes): 0.56
chemotaxis index (srh-125 RNAi-treated nematodes): 0.70
chemotaxis index (srh-128 RNAi-treated nematodes): 0.62
chemotaxis index (srh-129 RNAi-treated nematodes): 0.69
chemotaxis index (srh-130 RNAi-treated nematodes): 0.70
chemotaxis index (srh-214 RNAi-treated nematodes): 0.78
chemotaxis index (srh-216 RNAi-treated nematodes): 0.73
chemotaxis index (srh-217 RNAi-treated nematodes): 0.60
chemotaxis index (srh-220 RNAi-treated nematodes): 0.52
chemotaxis index (srh-222 RNAi-treated nematodes): 0.58
chemotaxis index (srh-223 RNAi-treated nematodes): 0.76
chemotaxis index (srh-227 RNAi-treated nematodes): 0.76
chemotaxis index (srh-229 RNAi-treated nematodes): 0.69
chemotaxis index (srh-233 RNAi-treated nematodes): 0.38
chemotaxis index (srh-235 RNAi-treated nematodes): 0.58
chemotaxis index (srh-236 RNAi-treated nematodes): 0.64
chemotaxis index (srh-239 RNAi-treated nematodes): 0.84
chemotaxis index (srh-241 RNAi-treated nematodes): 0.85
chemotaxis index (srh-243 RNAi-treated nematodes): 0.63
chemotaxis index (srh-244 RNAi-treated nematodes): 0.76
chemotaxis index (srh-247 RNAi-treated nematodes): 0.54
chemotaxis index (srh-250 RNAi-treated nematodes): 0.58
chemotaxis index (srh-251 RNAi-treated nematodes): 0.64
chemotaxis index (srh-252 RNAi-treated nematodes): 0.64
chemotaxis index (srh-258 RNAi-treated nematodes): 0.75
chemotaxis index (srh-261 RNAi-treated nematodes): 0.72
chemotaxis index (srh-264 RNAi-treated nematodes): 0.74
chemotaxis index (srh-266 RNAi-treated nematodes): 0.25
chemotaxis index (srh-274 RNAi-treated nematodes): 0.60
chemotaxis index (srh-275 RNAi-treated nematodes): 0.53
chemotaxis index (srh-276 RNAi-treated nematodes): 0.59
chemotaxis index (srh-277 RNAi-treated nematodes): 0.65
chemotaxis index (srh-279 RNAi-treated nematodes): 0.61
chemotaxis index (srh-281 RNAi-treated nematodes): 0.55
chemotaxis index (srh-282 RNAi-treated nematodes): 0.79
chemotaxis index (srh-283 RNAi-treated nematodes): 0.56
chemotaxis index (srh-284 RNAi-treated nematodes): 0.59
chemotaxis index (srh-291 RNAi-treated nematodes): 0.91
chemotaxis index (srh-292 RNAi-treated nematodes): 0.78
chemotaxis index (srh-293 RNAi-treated nematodes): 0.82
chemotaxis index (srh-297 RNAi-treated nematodes): 0.56
chemotaxis index (srh-298 RNAi-treated nematodes): 0.82
chemotaxis index (srh-308 RNAi-treated nematodes): 0.30
